As a reminder, the EC50 is the midpoint of the concentration-response curve.

Molecules are shown by their SMILES.

The values that follow come from patent US7595345B2, “Vitamin D receptor modulators” (Eli Lilly and Company, priority 2003, dated 2009).

Series [1] deals with T1, RXR-VDR heterodimer (Gal4-RXR-DEF and VP16-VDR-LBD) (Homo sapiens, UniProt P11473).
T1 construct: Add the Gal4-RXR-DEF and VP16-VDR-LBD; expressed in transfected cells; host or cells: SaOs-2 cells
T1 sequence (P11473 127-423 limits assumed): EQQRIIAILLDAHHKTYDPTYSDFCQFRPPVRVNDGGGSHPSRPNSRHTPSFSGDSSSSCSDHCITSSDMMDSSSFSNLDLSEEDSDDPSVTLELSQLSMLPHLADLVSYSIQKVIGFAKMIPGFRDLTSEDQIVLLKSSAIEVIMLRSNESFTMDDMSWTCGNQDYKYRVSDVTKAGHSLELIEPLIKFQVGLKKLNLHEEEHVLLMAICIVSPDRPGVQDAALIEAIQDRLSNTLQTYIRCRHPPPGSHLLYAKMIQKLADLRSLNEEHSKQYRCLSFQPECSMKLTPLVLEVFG
T1 sequence (P19793 201-462 partner limits assumed): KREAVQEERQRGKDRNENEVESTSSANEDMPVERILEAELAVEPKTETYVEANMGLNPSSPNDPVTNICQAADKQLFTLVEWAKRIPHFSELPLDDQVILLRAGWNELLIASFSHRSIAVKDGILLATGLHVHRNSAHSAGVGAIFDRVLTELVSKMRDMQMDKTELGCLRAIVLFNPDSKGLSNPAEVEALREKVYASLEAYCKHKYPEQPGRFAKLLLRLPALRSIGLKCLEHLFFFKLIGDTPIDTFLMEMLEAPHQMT
Briefly: RXR-VDR heterodimerization assay (SaOS-2 cells). Format: cell-based. The following applies: luciferase reporter pFR-LUC. An excerpt:
1. The RXR-VDR Heterodimer Assay:
This assay provides the VDR activity of a test compound.
This is an in vitro efficacy assay for psoriasis, abscess and adhesion. Psoriasis involves both keratinocytes and immune cells. IL-10 is a unique cytokine because it is anti-inflammatory and immunosuppressive. This assay tells us whether a VDRM is able to function as an agonist in PBMCs (primary blood mononuclear cells) or not. […] 7. Other Compound Assay Standards An alternative measure of the efficacy of compounds of the invention for treatment of osteoporosis is a numerical ratio calculated as follows: • Dose Threshold needed to induce hypercalcemia • divided by • Dose Threshold needed for bone efficacy An alternative measure of the efficacy of compounds of the invention for treatment of psoriasis is a numerical ratio calculated as follows: • Dose Threshold needed to induce hypercalcemia • divided by • Dose Threshold needed to induce keratinocyte proliferation For the above ratios, Dose Thresholds are determined from dose response curve data. 8. The CaT1 (Calcium Transport Protein 1) Assay The CaT1 Assay is an indicator for the undesirable condition of hypercalcemia. […] Preferred assay results are greater than 1000 nM. Details of the Assay Methods: (1) Materials and Method for RXR-VDR Heterodimerization Assay: Transfection Method:
Grow SaOs-2 cells in T-152 cm^2 culture flasks in growth media.
Keep the density at 5-6×10^5 cells/ml
Passage cells 1:3 twice a week
Resuspend cells in plating media and transfer into growth media.
Transfection/Treatment Media:
D-MEM Low Glucose Without Phenol Red only
T-152 cm^2 culture flask:
Use well plate to plate cells
Use Deep well plate sterile to make up treatment media.
Luciferase Assay Reagent:
Use Steady-Glo Luciferase Reagent from Promega (Cat #E2550) Consists of:
a. E2533 Assay Substrate, lyophilized product and
Aspirate media from culture flask, rinse cells with HBSS and aspirate.
Add trypsin and incubate. […]
Read the plates after drug treatment […]
Count each well using a Luminescence counter, Top Count NXT by Packard […]
In general terms: In a reporter assay the amount or activity of a reporter protein is the signal.

The next series addresses T2, VDR (pGal4-VDR-LBD) (Homo sapiens, UniProt P11473).
T2 construct: the receptor expression vector pGal4-VDR-LBD (10 ng); expressed in transfected cells; host or cells: Caco-2 cells
T2 sequence (P11473 127-423 limits assumed): T1 sequence (P11473 127-423 limits assumed)
Briefly: VDR CTF (Caco-2 cell co-transfection assay). The following applies: Caco-2 cells, Gal4-responsive reporter pFRLuc; surrogate for calcemic activity. Format: cell-based. The protocol:
2. The Caco-2 Cell Co-Transfection Assay:
The Caco-2 cell assay is an indicator for the undesirable condition of hypercalcemia. This co-transfection assay is a surrogate assay for in vivo calcemic activity of VDR ligands. […] Preferred assay results are greater than 1000 nM.
(2) Materials and Method for the Caco-2 Cell Assay:
Caco-2 cells, grown in phenol red free, DMEM (Invitrogen, Carlsbad, Calif.) containing 10% charcoal-stripped FCS (Hyclone, Logan, Utah), were transfected with Fugene 6 reagent (Roche Diagnostics, Indianapolis, Ind.). Cells (5000/well) were plated 18 h before transfection in a 96 well plate. The Cells were transfected with Gal4-responsive reporter pFRLuc (150 ng, Stratagene, La Jolla Calif.) and the receptor expression vector pGal4-VDR-LBD (10 ng), along with Fugene 6 reagent (0.2 μl/well). The DNA-Fugene complex was formed by incubating the mixture for 30 min at room temperature. The cells were transfected in triplicate for 5 h, and treated with various concentrations of VDR ligands (form 0.01 nM to 10,000 nM concentration range) 18 h post-transfection. The luciferase activity was quantified using Steady-Glo reagent kit (Promega, Madison, Wis.) as per manufacturer's specifications.

In another series the test system is rat osteocalcin promoter. Description: OCN (osteocalcin) promoter assay. Format: cell-based. Particulars: Rattus norvegicus, 48 h, RG-15 (ROS 17/2.8) cells, 48 hr treatment, luciferase. The protocol:
3. The OCN (Osteocalcin) Promoter Assay
The OCN Promoter Assay is an indicator and marker for osteoporosis. Desired assay results are EC50 less than or equal to […]. Preferred assay results are less than […].
(3) Materials and Method for the OCN Promoter Assay:
The activation of osteocalcin by VDR ligands was evaluated in a rat osteoblast-like cell line RG-15 (ROS 17/2.8) stably expressing rat osteocalcin promoter fused with luciferase reporter gene. The stable cell lines were established as reported before (Activation of Osteocalcin Transcription involves interaction of protein kinase A- and Protein kinase C-dependent pathways. Boguslawski, G., Hale, L. V., Yu, X.-P., Miles, R. R., Onyia, J. E., Santerre R. F., Chandrasekhar, S. J. Biol. Chem. 275, 999-1006, 2000). Confluent RG-15 cells maintained in DMEM/F-12 medium (3:1) containing 5% FBS, 300 µg/ml G418 and at 37° C. under 5% CO2/95% air atmosphere were trypsinized (0.25% trypsin) and plated into white opaque 96-well cell culture plates (25000 cells/well). After 24 hr, cells (in DMEM/F-12 medium+2% FBS) were treated with various concentrations of compounds, dissolved in DMSO. The final DMSO concentration remained at 0.01% (v/v). After 48 hr treatment, the medium was removed, cells were lysed with 50 µl of lysis buffer (From Luciferase reporter assay system, Roche Diagnostics, Indianapolis, Ind.) and assayed for luciferase activity using the Luciferase Reporter Gene Assay kit from Boehringer Mannheim as per manufacturer's specifications.

Series [2] can be described thus: Mouse hypercalcemia assay. Format: in vivo. The following applies: female DBF mice, oral gavage for 6 days, serum ionized calcium 6 hours after last dosing. An excerpt: 4. The Mouse Hypercalcemia Assay
(4) Materials and Method for the Mouse Hypercalcemia Assay: […]

Take `CCC(CC)(c1ccc(C#CC2(O)CCCC2)c(C)c1)c1ccc(C(=O)NC(C)(C)C(=O)O)c(C)c1` [Ex. 1, 2-(4-{1-Ethyl-1-[4-(1-hydroxy-cyclopentylethynyl)-3-methyl-phenyl]-propyl}-2-methyl-benzoylamino)-2-methyl-propionic acid]: the 50% effective concentration (EC50) in series [1] is 68.6 nM; at VDR (pGal4-VDR-LBD) it was 471 nM; with rat osteocalcin promoter it was 0.96 nM. Also, in series [2], the “Mouse Hypercal” value was 3000 µg/kg/day.
